From patent US20190022091A1, “METHOD OF TREATMENT FOR MENTAL DISORDERS” (SUMITOMO DAINIPPON PHARMA CO., LTD., priority 2010, published 2019)
Counter-ions that a name gives are not always drawn.

Legend:
common marmosets = assay: ORD test (object retrieval with detour test) in marmosets; type: in vivo, common marmoset; conditions: for variation of the correct % of the ORD test (difficult task): single oral administration, test 2 hours after administration vs before, FIG. 2-6
Procedure: ORD test (object retrieval with detour test) is already reported as a method for evaluating executive function (attention function/impulsiveness) in primates.
Male and female common marmosets having body weights of 250-450 g were used. Haloperidol, clozapine, olanzapine, risperidone, and lurasidone hydrochloride were separately suspended in 0.5% methylcellulose (MC), and then each suspension was orally administered in a dose of 5 mL/kg to the marmosets. On the other hand, L-745,870 which is a D4 antagonist, and Ro 10-5824 which is a D4 agonist were separately dissolved in saline, and then each solution was intramuscularly administered to the femoris area in a dose of 0.5 mL/kg.
According to the method described in the literature (Psychopharmacology (2006) 196: 643-648) which was partially modified, the ORD test was carried out as follows (see FIG. 1).
In each of the boxes, 0.3-0.5 g of Baumkuchen as a food reward is placed at the point of each triangle in FIG. 1. The marmoset can reach out from the cage (shown as dotted line region) to obtain the reward placed in the acrylic box. FIG. 1 is a view from the directly above. Amongst the situations between each direction of the box and each position of the reward, 5 patterns (line of sight, left outside, left inside, right outside, and right inside) are defined as “easy task”, and the other 2 patterns (left deep, and right deep) are defined as “difficult task”. It is recorded as “correct” when the test animal can obtain the reward in one trial, while it is recorded as “incorrect” when the animal can obtain the reward in the second trial or later.
The ORD test is carried out in the order described in the following table without any interval between each trial, which is referred to as “one series”. The marmoset is made to be trained with the one series once a day.
The marmosets were trained with the ORD test at least 10 times, and then the trained marmosets were used in the following main test.
The main ORD test was carried out as follows.
(1) The ORD test is carried out before administering each test drug (former value). Hereinafter, the ORD test is done in one series containing the 17 trials corresponding to the above-mentioned training.
(2) Two hours after administering each test drug, the same ORD test is carried out again (latter value). In case of the combined administration, the first drug (lurasidone hydrochloride) is administered; one hour later, the second drug (the D4 antagonist or D agonist) is administered; and then the ORD test is done one hour after the second drug is administered.
(3) The variation of correct % in the Difficult task is calculated according to the following formula in order to evaluate the effect of each drug. For example, in case that the “correct count” in the before-administration test (former value) is 3 and the “correct count” in the after-administration test (latter value) is 5, the “correct %” is calculated to rise in 25% (=(5-3)/8×100%) based on the fact that the trial count of the difficult task in each series is 8.
The variation of the correct %={the difference between the both correct counts in the difficult task (latter value−former value)}/8×100
(4) The amount of Baumkuchen is 0.5 g×17=8.5 g in one series. The marmoset can be tested at most 2 sets per day, i.e. it has been confirmed that the marmoset can take at most 17 g of Baumkuchen per day, but, all the test marmosets cannot be satisfied with 17 g of Baumkuchen.
(5) In case that a marmoset treated with the drug is used again, the marmoset is given in 2 week-drug-holidays, and before the test it is confirmed that the previous medication will not affect the test.
(6) 5 to 6 marmosets were used per one test group. When a marmoset (s) suffered from vomiting or cataleptic akinesia induced by the drug and then the ORD test with the marmoset (s) could not be done, the data of the marmoset(s) were excluded. […]

SHRSP rats = assay: Y-maze test with juvenile SHRSP rats; type: in vivo, rat; conditions: for Total Arm Entries mean ± SE / % of Alternation Behavior mean ± SE: SHRSP; for Total Arm Entries mean ± SE: 8 minute session; for % of Alternation Behavior mean ± SE: 30 minutes before evaluation
Excerpt: According to the Y-maze test with juvenile stroke-prone spontaneously hypertensive rats (SHRSP), it is possible to evaluate the effect of lurasidone hydrochloride on attention function with spontaneous Alternation Behavior as an index of attention or concentration (Behav Brain Funct. 2005 Jul. 15; 1:9). Moreover, the effects of lurasidone hydrochloride on hyperactivity, which is one of core symptoms in ADHD, can be confirmed by the total number of the Arm Entries in a Y-maze test.
For the estimation of inattentive behavior, male juvenile SHRSP rats as an ADHD model and WKY rats as a reference (4 weeks old, n=8-10/group) are used. These animals are commercially available from Charles River Laboratories Japan, inc. or Hoshino Laboratory animals, inc. Lurasidone hydrochloride (e.g. 0.01, 0.03, 0.1, 0.3, 1, 3 and 10 mg/kg; produced by Dainippon Sumitomo Pharma Co., Ltd.) is dissolved in 0.5% methylcellulose and 0.2% Tween 80, and is administrated intraperitoneally in a volume of 1 ml/kg, 30 minutes before the evaluation.
The method of Y-maze test was already reported elsewhere (Behav Pharmacol. 2002 February; 13(1):1-13). The “Arm Entry” means the entry of all four paws into one arm. The “Alternation Behavior”, which is actual alternations, means the consecutive Arm Entries into three different arms. The test is carried out for 8 minutes in one session and the total number that a rat performs the Arm Entry is counted. The “Maximum Alternations” means the total number of the Arm Entries minus two. An index of attention is calculated as a percentage of the Alternation Behavior, as described below.
A percentage of Alternation Behavior=(the total number of the Alternation Behavior)/(the Maximum Alternations)×100

dopamine D2 = dopamine D2 (Homo sapiens, UniProt P14416); conditions: cited from earlier work
serotonin 5-HT1A = target: T1, serotonin 5-HT1A (Homo sapiens, UniProt P08908); conditions: cited from earlier work
T1 sequence (P08908 1-422): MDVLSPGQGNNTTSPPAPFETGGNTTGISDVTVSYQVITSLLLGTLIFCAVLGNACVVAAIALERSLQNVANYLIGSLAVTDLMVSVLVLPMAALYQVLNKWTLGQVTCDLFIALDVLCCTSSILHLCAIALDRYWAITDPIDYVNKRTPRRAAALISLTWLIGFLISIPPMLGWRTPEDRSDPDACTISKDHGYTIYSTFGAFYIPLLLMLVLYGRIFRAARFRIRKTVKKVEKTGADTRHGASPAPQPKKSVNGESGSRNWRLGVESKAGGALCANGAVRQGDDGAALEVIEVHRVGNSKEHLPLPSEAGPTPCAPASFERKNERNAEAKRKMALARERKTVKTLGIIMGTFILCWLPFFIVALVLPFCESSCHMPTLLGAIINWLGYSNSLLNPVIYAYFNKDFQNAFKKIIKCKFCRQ

5-HT2A = 5-HT2A (Homo sapiens, UniProt P28223); conditions: cited from earlier work
5-HT7 = 5-HT7 (Homo sapiens, UniProt P34969); conditions: cited from earlier work
[1] = target: T2, noradrenaline α2c receptors (Homo sapiens, UniProt P18825); conditions: cited from earlier work
T2 sequence (P18825 1-462): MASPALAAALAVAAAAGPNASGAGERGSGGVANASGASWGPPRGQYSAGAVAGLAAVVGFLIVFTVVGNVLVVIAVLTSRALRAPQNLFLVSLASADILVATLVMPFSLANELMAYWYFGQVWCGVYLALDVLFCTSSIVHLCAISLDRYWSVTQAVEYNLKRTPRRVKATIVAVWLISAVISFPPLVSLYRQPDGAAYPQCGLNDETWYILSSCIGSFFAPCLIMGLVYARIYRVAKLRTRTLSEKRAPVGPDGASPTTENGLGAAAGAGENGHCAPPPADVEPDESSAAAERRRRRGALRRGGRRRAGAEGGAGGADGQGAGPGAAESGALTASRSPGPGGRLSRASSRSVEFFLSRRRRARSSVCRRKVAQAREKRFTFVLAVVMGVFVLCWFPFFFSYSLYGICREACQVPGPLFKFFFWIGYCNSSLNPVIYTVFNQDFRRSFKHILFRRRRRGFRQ

histamine H1 = histamine H1 (Homo sapiens, UniProt P35367); conditions: cited from earlier work
muscarinic M1 receptors = target: T3, muscarinic M1 receptors (Homo sapiens, UniProt P11229); conditions: cited from earlier work
T3 sequence (P11229 1-460): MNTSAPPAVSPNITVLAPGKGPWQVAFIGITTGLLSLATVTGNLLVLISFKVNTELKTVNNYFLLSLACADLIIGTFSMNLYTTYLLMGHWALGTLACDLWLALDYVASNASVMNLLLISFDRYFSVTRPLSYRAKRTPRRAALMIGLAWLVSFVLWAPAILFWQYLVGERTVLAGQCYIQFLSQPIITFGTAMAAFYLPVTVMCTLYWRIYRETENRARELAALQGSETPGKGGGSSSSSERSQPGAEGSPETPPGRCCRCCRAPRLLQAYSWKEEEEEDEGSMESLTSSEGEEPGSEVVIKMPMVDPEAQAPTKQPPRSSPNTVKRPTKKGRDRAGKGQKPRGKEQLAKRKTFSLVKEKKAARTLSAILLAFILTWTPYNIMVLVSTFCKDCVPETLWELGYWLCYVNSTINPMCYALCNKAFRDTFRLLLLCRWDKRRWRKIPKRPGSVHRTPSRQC

Sequence of 5-HT7 (P34969 whole entry, species assumed): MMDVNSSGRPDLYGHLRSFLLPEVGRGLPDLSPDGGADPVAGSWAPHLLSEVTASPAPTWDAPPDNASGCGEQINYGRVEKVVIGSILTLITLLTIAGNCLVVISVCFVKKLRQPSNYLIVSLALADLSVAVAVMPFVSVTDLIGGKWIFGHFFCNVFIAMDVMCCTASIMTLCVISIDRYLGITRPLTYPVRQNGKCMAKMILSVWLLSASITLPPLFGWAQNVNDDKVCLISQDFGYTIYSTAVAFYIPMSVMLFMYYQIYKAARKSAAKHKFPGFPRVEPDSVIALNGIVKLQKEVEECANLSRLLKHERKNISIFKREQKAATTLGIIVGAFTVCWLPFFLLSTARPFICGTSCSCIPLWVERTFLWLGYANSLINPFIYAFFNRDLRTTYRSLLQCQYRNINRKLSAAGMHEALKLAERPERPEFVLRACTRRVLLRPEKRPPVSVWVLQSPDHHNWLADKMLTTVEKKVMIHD
Sequence of histamine H1 (P35367 whole entry): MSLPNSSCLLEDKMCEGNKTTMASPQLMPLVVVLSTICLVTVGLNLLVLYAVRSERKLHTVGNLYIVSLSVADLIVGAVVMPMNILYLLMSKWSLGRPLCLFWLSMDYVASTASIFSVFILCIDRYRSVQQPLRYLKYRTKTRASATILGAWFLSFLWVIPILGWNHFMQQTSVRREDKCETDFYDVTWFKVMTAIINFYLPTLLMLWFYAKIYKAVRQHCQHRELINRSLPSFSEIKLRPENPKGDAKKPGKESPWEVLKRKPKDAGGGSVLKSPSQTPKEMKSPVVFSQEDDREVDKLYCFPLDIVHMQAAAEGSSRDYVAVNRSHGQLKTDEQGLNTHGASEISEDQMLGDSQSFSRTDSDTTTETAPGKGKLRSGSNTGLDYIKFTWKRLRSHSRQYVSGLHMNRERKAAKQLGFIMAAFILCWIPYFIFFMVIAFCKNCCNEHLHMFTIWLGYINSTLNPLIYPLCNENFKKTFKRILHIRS
Sequence of 5-HT2A (P28223 whole entry, species assumed): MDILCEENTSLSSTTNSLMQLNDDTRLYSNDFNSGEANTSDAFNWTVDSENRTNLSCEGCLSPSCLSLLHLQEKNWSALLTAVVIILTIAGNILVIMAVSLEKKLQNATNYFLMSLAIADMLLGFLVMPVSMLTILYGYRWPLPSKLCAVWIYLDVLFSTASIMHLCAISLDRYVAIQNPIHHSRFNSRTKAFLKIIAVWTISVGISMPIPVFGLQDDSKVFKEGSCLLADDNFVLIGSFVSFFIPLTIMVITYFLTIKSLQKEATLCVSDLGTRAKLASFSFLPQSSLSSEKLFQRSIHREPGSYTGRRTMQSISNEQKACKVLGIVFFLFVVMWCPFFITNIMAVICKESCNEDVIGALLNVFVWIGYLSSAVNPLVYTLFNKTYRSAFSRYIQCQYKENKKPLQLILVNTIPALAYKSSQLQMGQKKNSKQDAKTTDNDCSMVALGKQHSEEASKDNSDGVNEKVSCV
Sequence of dopamine D2 (P14416 whole entry): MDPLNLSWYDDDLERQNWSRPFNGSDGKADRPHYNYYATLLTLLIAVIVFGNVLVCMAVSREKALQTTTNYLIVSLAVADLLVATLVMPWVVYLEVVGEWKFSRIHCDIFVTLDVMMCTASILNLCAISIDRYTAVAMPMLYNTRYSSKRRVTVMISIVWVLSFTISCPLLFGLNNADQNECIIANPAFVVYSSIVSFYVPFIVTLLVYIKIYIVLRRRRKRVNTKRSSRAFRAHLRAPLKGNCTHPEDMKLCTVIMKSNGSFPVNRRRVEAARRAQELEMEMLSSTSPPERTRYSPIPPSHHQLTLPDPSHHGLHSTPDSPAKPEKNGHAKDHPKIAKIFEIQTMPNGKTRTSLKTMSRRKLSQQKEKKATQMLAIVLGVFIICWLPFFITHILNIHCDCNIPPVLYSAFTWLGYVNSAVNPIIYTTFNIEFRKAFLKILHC

For `O=C1[C@@H]2[C@H]3CC[C@H](C3)[C@@H]2C(=O)N1C[C@@H]1CCCC[C@H]1CN1CCN(c2nsc3ccccc23)CC1` [lurasidone hydrochloride], the ORD score (common marmosets; lurasidone hydrochloride 3 mg/kg p.o. combined with Ro 10-5824 0.3 mg/kg i.m., FIG. 8) was “the ORD score was significantly increased”, the “correct % of the ORD test” value (common marmosets; lurasidone hydrochloride alone, 3 mg/kg p.o.) was “had no effects on the correct %” and the “variation of the correct % of the ORD test (difficult task)” value (common marmosets) was “increased the correct % of the ORD test in a dose-dependent manner”. For the same compound, the “Total Arm Entries mean ± SE” value (SHRSP rats; 0.1 mg/kg i.p.) was 24 ± 1, the “% of Alternation Behavior mean ± SE” value (SHRSP rats; 0.1 mg/kg i.p.) was 70 ± 5% and the “Total Arm Entries mean ± SE” value (SHRSP rats; 0.3 mg/kg i.p., P < 0.05) was 22 ± 2. For the same compound, the “% of Alternation Behavior mean ± SE” value (SHRSP rats; 0.3 mg/kg i.p., P < 0.05) was 75 ± 2 %, the “Total Arm Entries mean ± SE” value (SHRSP rats; 1.0 mg/kg i.p., P < 0.05) was 21 ± 1 and the “% of Alternation Behavior mean ± SE” value (SHRSP rats; 1.0 mg/kg i.p.) was 72 ± 2%. For the same compound, the “Alternation Behavior (in words)” value (SHRSP rats; SHRSP, 0.1, 0.3 or 1.0 mg/kg, significant at 0.3 mg/kg (p=0.0124)) was “the Alternation Behavior was improved” and the “number of total Arm Entries (in words)” value (SHRSP rats; SHRSP, 0.1, 0.3 or 1.0 mg/kg, significant at 0.3 (p=0.0096) and 1 (p=0.0047) mg/kg) was “showed the decreased number of total Arm Entries”.

With `Cc1ncc(CN2CC=C(c3ccccc3)CC2)c(N)n1` [Ro 10-5824, 2-Methyl-5-(4-phenyl-1,2,3,6-tetrahydropyridin-1-yl-methyl)pyrimidine-4-amine] the “correct % of the ORD test” value (common marmosets; Ro 10-5824 alone, 0.3 mg/kg i.m.) was “had no effects on the correct %” and the ORD score (common marmosets; single administration i.m., dose series, FIG. 8) was “increased the ORD score in a dose dependent manner”.

In the case of `Clc1ccc(N2CCN(Cc3c[nH]c4ncccc34)CC2)cc1` [L-745,870], the “correct % of the ORD test” value (common marmosets; L-745,870 3 mg/kg i.m. combined with lurasidone hydrochloride 10 mg/kg p.o., FIG. 7) is reported as “decreased the correct % which was increased by the administration of lurasidone hydrochloride” and the ORD score (common marmosets; single intramuscular administration, 10 mg/kg, FIG. 7) is reported as “had no effects on the ORD score”.

With `O=C(CCCN1CCC(O)(c2ccc(Cl)cc2)CC1)c1ccc(F)cc1` [haloperidol] the “variation of the correct % of the ORD test (difficult task)” value (common marmosets) was “decreased the correct % of the ORD test in a dose-dependent manner”.

For `O=C1[C@@H]2[C@H]3CC[C@H](C3)[C@@H]2C(=O)N1C[C@@H]1CCCC[C@H]1CN1CCN(c2nsc3ccccc23)CC1` [Lurasidone, (3aR, 4S, 7R, 7aS)-2-{1(1R,2R)-2-(4-(1,2-benzisothiazol-3-yl)piperazin-1-yl-methyl]cyclohexylmethyl}hexahydro-4,7-methano-2H-isoindole-1,3-dione], the affinity (dopamine D2) is given as “high affinity”, the affinity (serotonin 5-HT1A) is given as “high affinity” and the affinity (5-HT2A) is given as “high affinity”. For the same compound, the affinity (5-HT7) was “high affinity”, the affinity [1] was “high affinity” and the affinity (histamine H1) was “minimal to no affinity”. For the same compound, the affinity (muscarinic M1 receptors) was “minimal to no affinity”.

For `Cc1nc2n(c(=O)c1CCN1CCC(c3noc4cc(F)ccc34)CC1)CCCC2` [risperidone], the “variation of the correct % of the ORD test (difficult task)” value (common marmosets) was “decreased the correct % of the ORD test in a dose-dependent manner”.
